Assay results published in patent US8673617B2, “Culture medium for Haemophilus influenzae type B” (Sanofi Pasteur SA, priority 2007, dated 2014).

Tests used:
[1] = test system: Haemophilus influenzae serotype b; experiment: PRP production in liquid garden pea peptone-based culture medium as a function of heme source (sandwich ELISA on supernatant); type: cell-based; settings: for Mean PRP / PRP in mg/l Assay 1 / PRP in mg/l Assay 2: garden pea medium, 16 h
Description: The production of PRP obtained after 16 hours of bacterial culture in liquid plant peptones-based culture media in which the heme source was either hemin or protoporphyrin IX of animal origin (porcine protoporphyrin) in disodium salt form, or protoporphyrin IX of purely synthetic origin in disodium salt form was compared. […] An enzymatic hydrolysate of garden pea peptone provided by Kerry (Hy pea 7404) and a wheat peptone provided by Organotechnie (19559) were tested at a concentration in the culture medium equivalent to 0.87 g/l of protein nitrogen. By reference to the current methods for the production of PRP, PRP production was also measured in a medium that contains a peptone of animal origin, such as casein hydrolysate (HAC) provided by Solabia at a concentration in the medium equivalent to 0.87 g/l with increased concentrations of hemin (see table III).
(§1) 1.1) Preparation of the Media • 1.1.1. Stock solution of β-NAD (Fluka) at 1 g/l in water which was ultrafiltered and then sterilized by filtration through 0.22 μm. • 1.1.2. Stock solution of hemin (Sigma) at 0.25 g/l in water was ultrafiltered, comprising 5 ml of 25% aqueous ammonia (Cooper) to aid dissolution. The stock solution was sterilized by filtration through 0.22 μm. • 1.1.3. Stock solution of porcine protoporphyrin IX (Sigma) at 0.25 g/l in ultrafiltered water comprising 5 ml of 25% aqueous ammonia (Cooper) in order to facilitate the dissolution. The stock solution was sterilized by filtration through 0.22 μm. • 1.1.4. Stock solution of synthetic protoporphyrin IX at 0.25 g/l in ultrafiltered water comprising 5 ml of 25% aqueous ammonia (Cooper) in order to facilitate the dissolution. The stock solution was also heated to 80° C. in a water bath with stirring in order to complete the dissolution before being sterilized by filtration through 0.22 μm. The protoporphyrin IX, in disodium salt form, was synthesized according to the method described in the U.S. provisional patent application Ser. No. 12/057,574, filed Mar. 28, 2008 and application Ser. No. 60/943,735 and filed on Jun. 13, 2007 using the steps which are described in scheme 2. • The stock solutions of hemin and protoporphyrin IX were checked for their respective contents of active compounds after sterilizing filtration. The protoporphyrin IX and hemin contents were determined by Reversed Phase High Performance Liquid Chromatography (RP-HPLC). The chromatographic chain comprises a twin head pump module allowing the formation of a binary gradient, a programmable automatic injector, a diode array UV detector and a chromatographic column of the type Synergi 4 μm, Polar RP-80A (150×4.6) mm, ref 00F-4336-E0, Phenomenex. • The stock solution of hemin (Sigma) to be checked after filtration was diluted ⅓ in distilled water. The stock solutions of porcine protoporphyrin IX (Sigma) and of synthetic protoporphyrin IX to be checked after filtration were diluted ¼ in distilled water. In parallel, a calibration series was prepared in ammoniated water ranging from 0.025 g/l to 0.125 g/l of protoporphyrin IX from porcine protoporphyrin IX from Sigma (ref: 25838-5) and a calibration series ranging from 0.050 g/l to 0.150 g/l of hemin from hemin from Sigma (ref: H5533-256). The samples to be checked and the various solutions of the calibration series were injected in a volume of 20 μl (for the hemin solutions and samples) and of 5 μl (for the protoporphyrin IX solutions and samples). The initial mobile phase consisting of a volume for volume mixture of acetonitrile and 10 mM KH2PO4 pH 2.5 is set at a flow rate of 1 ml/min. A discontinuous gradient was then produced from this mobile phase in order to separate the molecules of interest which are detected at a wavelength of 400 nm. […]

[2] = test system: Haemophilus influenzae serotype b; experiment: PRP production in liquid wheat peptone-based culture medium as a function of heme source (sandwich ELISA on supernatant); type: cell-based; settings: for Mean PRP / PRP in mg/l Assay 1 / PRP in mg/l Assay 2: wheat medium, 16 h
Description: The production of PRP obtained after 16 hours of bacterial culture in liquid plant peptones-based culture media in which the heme source was either hemin or protoporphyrin IX of animal origin (porcine protoporphyrin) in disodium salt form, or protoporphyrin IX of purely synthetic origin in disodium salt form was compared. The hemin and protoporphyrin IX concentration ranges in the culture media varied from about 0.010 g/l to about 2 g/l so as to obtain PRP titration curves as a function of the heme source tested and as a function of the plant peptone tested. An enzymatic hydrolysate of garden pea peptone provided by Kerry (Hy pea 7404) and a wheat peptone provided by Organotechnie (19559) were tested at a concentration in the culture medium equivalent to 0.87 g/l of protein nitrogen. By reference to the current methods for the production of PRP, PRP production was also measured in a medium that contains a peptone of animal origin, such as casein hydrolysate (HAC) provided by Solabia at a concentration in the medium equivalent to 0.87 g/l with increased concentrations of hemin (see table III).
as §1

[3] = porcine protoporphyrin IX 7.48 μg/l
[4] = porcine protoporphyrin IX 37.4 μg/l
[5] = porcine protoporphyrin IX 74.8 μg/l
[6] = porcine protoporphyrin IX 187 μg/l
[7] = porcine protoporphyrin IX 374 μg/l
[8] = porcine protoporphyrin IX 748 μg/l
[9] = porcine protoporphyrin IX 1122 μg/l
[10] = porcine protoporphyrin IX 1496 μg/l

protoporphyrin IX
protoporphyrin IX concentration to obtain about 400 mg/l of PRP ([1]; garden pea peptone and protoporphyrin IX-based medium): about 100 μg/l | times less protoporphyrin IX than hemin required for maximum PRP production ([1]; garden pea peptone medium): About 12.5 times | heme source concentration required for optimum / maximum PRP production ([1]; garden pea peptone medium (FIG. 1)): about 200 μg/l | optimum PRP production ([1]; garden pea peptone medium, about 200 μg/l): ≈ 480 mg/l | PRP concentration in the culture supernatant at maximum production ([1]; plant peptone medium, 100 to 200 μg/l): 0.4 g/L | production of PRP (in words) ([1]; plant peptone medium, heme source at 10 μg/l): significant production of PRP | production of PRP ([1]; plant peptone medium, heme source at 50 μg/l (FIGS. 1 and 2)): ≥ 100 µg/L | protoporphyrin IX concentration to obtain about 400 mg/l of PRP ([2]; wheat peptone and protoporphyrin IX-based medium): about 100 μg/l | times less protoporphyrin IX than hemin required for maximum PRP production ([2]; wheat peptone medium): About 15 times | heme source concentration required for optimum / equivalent PRP production ([2]; wheat peptone medium (FIG. 2)): about 100 μg/l | optimum PRP production ([2]; wheat peptone medium, about 100 μg/l): ≈ 400 mg/l

protoporphyrin IX [Porcine protoporphyrin IX]
Mean PRP [1, 3]: 15.6 mg/L | PRP in mg/l Assay 1 [1, 3]: 15.1 mg/L | PRP in mg/l Assay 2 [1, 3]: 16.1 mg/L | Mean PRP [1, 4]: 146 mg/L | PRP in mg/l Assay 1 [1, 4]: 143 mg/L | PRP in mg/l Assay 2 [1, 4]: 149 mg/L | Mean PRP [1, 5]: 349 mg/L | PRP in mg/l Assay 1 [1, 5]: 344 mg/L | PRP in mg/l Assay 2 [1, 5]: 354 mg/L | Mean PRP [1, 6]: 470 mg/L | PRP in mg/l Assay 1 [1, 6]: 450 mg/L | PRP in mg/l Assay 2 [1, 6]: 490 mg/L | Mean PRP [1, 7]: 423.5 mg/L | PRP in mg/l Assay 1 [1, 7]: 415 mg/L | PRP in mg/l Assay 2 [1, 7]: 432 mg/L | Mean PRP [1, 8]: 509 mg/L | PRP in mg/l Assay 1 [1, 8]: 495 mg/L | PRP in mg/l Assay 2 [1, 8]: 523 mg/L | Mean PRP [1, 9]: 521 mg/L | PRP in mg/l Assay 1 [1, 9]: 492 mg/L | PRP in mg/l Assay 2 [1, 9]: 550 mg/L | Mean PRP [1, 10]: 479 mg/L | PRP in mg/l Assay 1 [1, 10]: 466 mg/L | PRP in mg/l Assay 2 [1, 10]: 493 mg/L | Mean PRP [2, 3]: 26.9 mg/L | PRP in mg/l Assay 1 [2, 3]: 25.5 mg/L | PRP in mg/l Assay 2 [2, 3]: 28.3 mg/L | Mean PRP [2, 4]: 142.5 mg/L | PRP in mg/l Assay 1 [2, 4]: 136 mg/L | PRP in mg/l Assay 2 [2, 4]: 149 mg/L | Mean PRP [2, 5]: 364 mg/L | PRP in mg/l Assay 1 [2, 5]: 429 mg/L | PRP in mg/l Assay 2 [2, 5]: 299 mg/L | Mean PRP [2, 6]: 430 mg/L | PRP in mg/l Assay 1 [2, 6]: 452 mg/L | PRP in mg/l Assay 2 [2, 6]: 408 mg/L | Mean PRP [2, 7]: 385.5 mg/L | PRP in mg/l Assay 1 [2, 7]: 397 mg/L | PRP in mg/l Assay 2 [2, 7]: 374 mg/L | Mean PRP [2, 8]: 388 mg/L | PRP in mg/l Assay 1 [2, 8]: 399 mg/L | PRP in mg/l Assay 2 [2, 8]: 377 mg/L | Mean PRP [2, 9]: 387.5 mg/L | PRP in mg/l Assay 1 [2, 9]: 446 mg/L | PRP in mg/l Assay 2 [2, 9]: 329 mg/L | Mean PRP [2, 10]: 373.5 mg/L | PRP in mg/l Assay 1 [2, 10]: 464 mg/L | PRP in mg/l Assay 2 [2, 10]: 283 mg/L
